These results are taken from article PMC9304199, “A small molecule CFTR potentiator restores ATP‐dependent channel gating to the cystic fibrosis mutant G551D‐CFTR” (British Journal of Pharmacology, 2022).

The target of the assay is F508del‐CFTR (Homo sapiens, UniProt P13569, DEL508-508). The assay is described as follows: Fluorescence-based halide flux assay (I−-induced quenching of YFP fluorescence) in FRT cells. Format: cell-based. Conditions: exploratory data. As for the experimental part: Fischer rat thyroid (FRT) epithelial cells (RRID:CVCL_A6IE) expressing CFTR variants were used for functional studies with halide flux and Ussing chamber techniques. FRT cells stably expressing the F508del variant with the V470 polymorphism and the halide sensor yellow fluorescent protein (YFP)‐H148Q/I152L (F508del‐CFTR‐YFP‐FRT cells) (Galietta et al., [2001]) were obtained from LJV Galietta (Telethon Institute for Genetics and Medicine, Pozzuoli, Italy). They were cultured in Coon's modified Ham's F‐12 medium supplemented with 10% FBS, 2‐mM GlutaMAX™, 0.27% NaHCO3, 100 U·ml^−1 penicillin and 100 μg·ml^−1 streptomycin and 0.8 mg·ml^−1 zeocin at 37°C in a humidified atmosphere with 5% CO2. […]
Chain of F508del‐CFTR (P13569 with tags, fused parts or gaps DEL508-508): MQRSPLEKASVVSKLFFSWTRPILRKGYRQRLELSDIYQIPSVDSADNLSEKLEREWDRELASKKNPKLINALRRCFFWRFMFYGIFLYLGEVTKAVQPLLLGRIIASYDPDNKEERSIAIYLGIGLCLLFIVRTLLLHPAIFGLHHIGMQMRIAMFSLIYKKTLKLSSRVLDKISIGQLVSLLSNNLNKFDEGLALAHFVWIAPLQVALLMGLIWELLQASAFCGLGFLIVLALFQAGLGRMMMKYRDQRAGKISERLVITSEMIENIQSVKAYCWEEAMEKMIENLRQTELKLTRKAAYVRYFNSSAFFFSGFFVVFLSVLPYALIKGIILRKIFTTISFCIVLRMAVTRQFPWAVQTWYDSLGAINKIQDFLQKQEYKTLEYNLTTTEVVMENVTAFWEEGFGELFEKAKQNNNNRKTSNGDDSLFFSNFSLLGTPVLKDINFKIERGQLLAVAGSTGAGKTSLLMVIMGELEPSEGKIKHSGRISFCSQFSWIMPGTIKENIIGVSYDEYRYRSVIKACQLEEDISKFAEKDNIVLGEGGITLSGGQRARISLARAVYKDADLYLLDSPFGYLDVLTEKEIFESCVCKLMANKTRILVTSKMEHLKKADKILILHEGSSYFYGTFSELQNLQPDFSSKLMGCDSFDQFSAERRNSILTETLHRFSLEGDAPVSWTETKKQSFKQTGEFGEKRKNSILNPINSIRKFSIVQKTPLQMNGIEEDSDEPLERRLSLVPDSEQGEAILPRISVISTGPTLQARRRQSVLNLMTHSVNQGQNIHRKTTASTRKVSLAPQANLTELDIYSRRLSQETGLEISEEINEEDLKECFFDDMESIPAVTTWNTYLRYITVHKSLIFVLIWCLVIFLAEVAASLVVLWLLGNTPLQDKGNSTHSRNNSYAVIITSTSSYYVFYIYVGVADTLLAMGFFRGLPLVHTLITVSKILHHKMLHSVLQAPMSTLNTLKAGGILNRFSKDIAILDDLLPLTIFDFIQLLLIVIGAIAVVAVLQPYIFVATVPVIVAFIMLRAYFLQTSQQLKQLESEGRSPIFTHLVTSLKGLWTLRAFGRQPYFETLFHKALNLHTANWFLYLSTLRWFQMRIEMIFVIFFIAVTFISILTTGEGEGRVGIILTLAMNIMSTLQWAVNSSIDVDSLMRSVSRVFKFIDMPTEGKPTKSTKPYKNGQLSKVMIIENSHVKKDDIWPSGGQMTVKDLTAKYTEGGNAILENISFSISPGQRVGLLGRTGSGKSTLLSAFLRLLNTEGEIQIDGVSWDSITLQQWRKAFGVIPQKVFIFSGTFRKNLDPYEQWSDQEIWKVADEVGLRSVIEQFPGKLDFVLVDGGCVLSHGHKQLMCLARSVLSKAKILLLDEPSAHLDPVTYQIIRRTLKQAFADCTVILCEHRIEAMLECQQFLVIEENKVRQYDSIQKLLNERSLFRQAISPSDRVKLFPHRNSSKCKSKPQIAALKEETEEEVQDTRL
CFTR‐mediated anion transport was quantified by measuring I^−‐induced quenching of YFP fluorescence using a microtitre plate reader following the method of Galietta et al. ([2001]). […] Using a fluorescence microtitre plate reader (FLIPR384; Molecular Devices, San Jose, CA, USA) equipped with 500‐nm excitation and 535‐nm emission filters, an initial fluorescence reading was recorded before addition of PBS‐iodide solution (composition [mM]: 137 NaI, 2.7 KCl, 8.1 Na2HPO4, 1.5 KH2PO4, 1 CaCl2, and 0.5 MgCl2, pH 7.40) into each well and 21 s later a second fluorescence reading was acquired. […]

`Cc1ncccc1CNC(=O)c1ccc2c(c1)CC[C@H]1C[C@](O)(CCC(F)(F)F)CC[C@]21Cc1ccccc1` (racemic) [CP‐628006, rac‐(4bR,7R,8aS)‐4b‐benzyl‐7‐hydroxy‐N‐((2‐methylpyridin‐3‐yl)methyl)‐7‐(3,3,3‐trifluoropropyl)‐4b,5,6,7,8,8a,9,10‐octahydrophenanthrene‐2‐carboxamide]: the “maximal response compared with ivacaftor” value (FRT cells co-expressing low temperature-rescued F508del‐CFTR and YFP) is given as “approximately half that of ivacaftor”. In addition, the EC50 (FRT cells co-expressing low temperature-rescued F508del‐V470‐CFTR and YFP, forskolin 20 μM, scaled to DMSO 0% and genistein 50 μM 100%, read-out: EC50 for potentiation of CFTR-mediated anion transport) stood at 400 nM.
